Assay results reported in paper PMC2913121 (Nature chemistry, 2010).

Tests used:
[1] = target: T1, SjGST (Schistosoma japonicum, UniProt P08515); assay: CDNB conjugation assay; format: biochemical; conditions: aniline up to 20 mM
[2] = target: T1, SjGST; assay: SjGST-templated acylhydrazone DCL, amplification by HPLC; format: binding; conditions: DCL synthesis in the presence of a large excess of the inhibitor

T1 sequence (P08515 whole entry): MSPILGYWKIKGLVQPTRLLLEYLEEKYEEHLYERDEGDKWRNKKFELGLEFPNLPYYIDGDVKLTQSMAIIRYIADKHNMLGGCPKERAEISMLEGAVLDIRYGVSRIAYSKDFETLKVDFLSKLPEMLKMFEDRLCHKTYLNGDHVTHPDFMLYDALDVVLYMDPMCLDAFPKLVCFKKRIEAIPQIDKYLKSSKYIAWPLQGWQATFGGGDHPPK

Row | effect on DCL component amplification [2] | SMILES | SjGST GSH conjugation activity in the presence of the additive [1]
1 |  | Nc1ccccc1 [aniline] | retained GSH conjugation activity
2 | completely suppressed | C=C(CC)C(=O)c1ccc(OCC(=O)O)c(Cl)c1Cl [ethacrynic acid] | 
